In paper PMC12519263, “Antifibrotic Efficacy of a Nintedanib–Peptide Conjugate and Diagnostic Potential of a Fluorescent Companion Probe Targeting αVβ6 Integrin in Idiopathic Pulmonary Fibrosis” (ACS Pharmacology & Translational Science, 2025):

Key:
[1] = Body weight monitoring and tolerability in Study #2; format: in vivo, C57Bl/6 mice; details: triple oropharyngeal BLM, within the first 7 days, compared to saline group
Description: Figure A illustrates the setup of the pharmacological experiment identified as Study #2 (see also Table S2 in the Supporting Information). After triple BLM instillation, all mice underwent μCT imaging on days 14 and 21, indicating the beginning and the end of the therapeutic window. , On day 14, the BLM-treated mice were divided into 5 groups, namely, Vehicle, NINT (23), NINT (94), PepNIN 1 (23), and Ligand 11 (23). The reference standard in our drug discovery studies is NINT (94), representing the ideal dosage (94 μmol/kg) of the FDA-approved drug that produces antifibrotic effects in the preclinical BLM model. To better emphasize the synergistic therapeutic effect of nintedanib when it is covalently conjugated with our integrin ligand, the stoichiometric dose of nintedanib within the PepNIN 1 group was reduced by four times (to 23 μmol/kg). […]
The experiments were carried out on male C57Bl/6 mice aged 7–8 weeks, purchased from Envigo (San Pietro al Natisone, Udine, Italy). […] All required measures were taken to mitigate the animals’ distress or discomfort, and a designated veterinarian or trained technicians assessed pain levels daily using a Visual Analogue Scale (VAS) ranging from 0 to 10. […]

[2] = system: BLM-induced lung fibrosis; assay: Antifibrotic therapy in BLM-induced lung fibrosis mouse model (Study #2; μCT, histology); format: in vivo, C57Bl/6 mice; details: day 14 to 21, BLM mice; for severe fibrotic lesions (Ashcroft score, histology): left lobe, Picrosirius red, day 21, vs BLM
Description: After triple BLM instillation, all mice underwent μCT imaging on days 14 and 21, indicating the beginning and the end of the therapeutic window. , On day 14, the BLM-treated mice were divided into 5 groups, namely, Vehicle, NINT (23), NINT (94), PepNIN 1 (23), and Ligand 11 (23). […] The two remaining groups received the NINT (23) (nintedanib at 23 μmol/kg) and ligand 11 (23) (cyclopeptide ligand 11 at 23 μmol/kg) alone to investigate the therapeutic effect of each single component at this reduced dosage.
Bleomycin hydrochloride (Baxter) dissolved in 50 μL of saline was administered via a triple oropharyngeal aspiration (OA) under 2.5% isoflurane anesthesia to induce pulmonary fibrosis, as previously described. , The negative control group received a triple OA with saline (Saline).
In Study #2, BLM-treated mice (29 of 35 mice) on day 14 were divided into 5 different groups (reported in Table S2, Supporting Information) and were daily treated with nintedanib (94 or 23 μmol/kg), PepNIN 1 (23 μmol/kg), integrin ligand 11 (23 μmol/kg), or vehicle (1% Tween 80 in ultrapure water) by oral gavage from day 14 to day 21. All mice were longitudinally monitored by μCT imaging on days 14 and 21, and subsequently they were sacrificed for the histological assessment of lung fibrosis.
Mice thoraxes were imaged using a Quantum GX Micro-CT scanner (Revvity, Inc. Waltham, MA) after anesthetic induction and maintenance with 2% isoflurane. Images were taken in free-breathing mice using the following parameters: an X-ray tube current of 88 A, an X-ray tube voltage of 90 kV, and a total angle of 360° over a scan period of 4 min. The detector was 736 × 588 pixels with a size of 0.2 mm. The reconstruction method automatically trimmed the pixels to produce a projection size of 512 × 512 pixels. Binning was not employed. Each animal was placed supine on the scanner bed, with its chest adjusted to fit inside the field of view. To detect the breathing pattern, pictures were captured in “high-speed” mode, allowing the recording of the gating signal through a region of interest (ROI) positioned over the animals’ diaphragm. Projections were collected in “list mode” (labeled as “00000”, “00001”, ···, “14′687”) during a single continuous gantry rotation. […] The acquisition duration was 4 min, and around 900 projections (both P01 and P02) were automatically selected and used for the reconstruction of the two data sets, with the option to change the thresholds to select the most suited projections. However, our highly controlled anesthetic protocol , enabled us to maintain constant breathing rates (100–120 bpm). Two stacks of 512 cross-sectional images were automatically reconstructed into two 3D data sets corresponding to the inspiratory and expiratory breathing phases (end-inspiration, P01; end-expiration, P02), with a 50 μm isotropic reconstructed voxel size, using a filtered back-projection algorithm with a Ram-Lak filter.

[3] = system: TGF-β1 in hIPF fibroblasts; assay: Western blot of intracellular TGF-β1 (44 kDa) expression; format: cell-based, human; details: 24 h, 5 μM, Western blot densitometry normalized to vinculin, vs untreated, three independent experiments
Description: (§1) The effect of treatment with compound 1 on patient-derived hIPF fibroblasts was next investigated by evaluating the inhibition of both TGF-β1 production and ERK1/2 phosphorylation. It is important to note that TGF-β1 expression is usually evaluated in cultured cells in secreted form in their culture medium (soluble and active form of TGF-β1 (13 kDa)). We reasoned that the evaluation of the intracellular form of full-length TGF-β1 (44 kDa) in hIPF fibroblasts might directly reflect the potency of the conjugated compound to inhibit TGF-β1 production. Evaluation of these fibrosis-related hallmarks would have been indicative of the downstream effect of our conjugate on IPF-related human cell signaling promoted by either the integrin ligand, the nintedanib component, or both. […]
(§2) The protein content in each sample was quantified using the Bradford colorimetric assay, and 56 μg of total proteins was prepared for SDS-PAGE analysis using Bolt LDS Sample Buffer 4× (Novex, Life Technologies) with 10% Bolt Sample Reducing Agent 10× (Novex, Life Technologies). […] Each band detected was quantified by densitometric analysis, using ImageJ software, and normalized against vinculin expression as the housekeeper protein.

[4] = system: hIPF fibroblasts; assay: Cell internalization by flow cytometry (intrinsic nintedanib fluorescence); format: cell-based, human; details: 24 h, 5 μM, flow cytometry λex 405 nm, BV421 channel, one representative result
Description: Cells were exposed for 24 h for treatment with compound 1 or nintedanib at 5 μM concentration; next, the percentage of positive cells of different treatment populations was determined and compared with the fluorescence intensity of untreated (UT) cells.
The integrin-mediated cell internalization of conjugate 1 and free nintedanib was determined by exploiting the intrinsic fluorescence of the nintedanib moiety (λex = 405 nm; λem = 480 nm). Intracellular fluorescence activity of 5 μM nintedanib was measured by flow cytometry. Fluorescence emission was analyzed using the BD Brilliant Violet 421 channel (450/50 nm bandpass filter) for the 405 nm laser.
Briefly, 150,000 cells were seeded in T25 flasks in complete culture medium and treated for 24 h with nintedanib or compound 1 at 5 μM concentration. After incubation, the cells were washed with PBS, gently detached using trypsin–EDTA solution, and resuspended in complete medium. After centrifugation (1500 rpm for 5 min), the cells were washed in PBS and resuspended in 300 μL of PBS for FACS analysis.

[5] = system: human recombinant VEGFR; set-up: method as in previously reported, see ref (number not given); details: ref previously reported, see ref (number not given); read-out: IC50, TKI activity against human recombinant VEGFR; cited from earlier work
[6] = system: p-ERK1/2 in hIPF fibroblasts; assay: Western blot of ERK1/2 phosphorylation; format: cell-based, human; details: 24 h, 5 μM, Western blot densitometry normalized to vinculin, vs untreated, three independent experiments
Description: as §1, §2

[7] = 94 μmol/kg oral gavage daily, vs BLM group

Bleomycin hydrochloride [BLM]
body weight reduction [1]: 10–15%

COC(=O)c1ccc2c(c1)NC(=O)/C2=C(\Nc1ccc(N(C)C(=O)CN2CCN(C)CC2)cc1)c1ccccc1 [nintedanib]
severe fibrotic lesions (Ashcroft score, histology) ([2]; 23 μmol/kg oral gavage daily): had no effects
lung aeration by longitudinal μCT (%GasExpiration, poorly aerated tissue) ([2]; 23 μmol/kg oral gavage daily, vs BLM group): tendency toward disease progression
severe fibrotic lesions (Ashcroft score, histology) ([2]; 94 μmol/kg oral gavage daily): clearly reduced severe fibrotic lesions
CT biomarkers adjusted to own basal value on day 14 [2, 7]: statistically significant improvement
lung aeration by longitudinal μCT (%GasExpiration, poorly aerated tissue) [2, 7]: significantly improved lung aeration
expression of intracellular form of TGF-β1 (44 kDa) [3]: reduced
percentage of positive cells (internalization) [4]: about 94%
percentage of positive cells (internalization) ([4]; listed as NINT): 93.8%
IC50 [5]: 7 nM
ERK1/2 phosphorylation [6]: reduced
